This assay relates to FGFR (phosphorylated) in DRG explants. Kind of assay: Western blot of phosphorylated FGFR in ex vivo DRG explants. The format is cell-based, Sprague-Dawley rat. The note with it: CH02 20 μM + BGJ398 2 μM, 4 h, n = 3. As for the experimental part:
Figure 5 Role of FGFR signaling in response to the CH02 peptide on promoting nerve regeneration. (A) Western blot analysis of phosphorylated FGFR expression in C5-T1 DRGs subjected to dorsal root crush injury, followed by CH02 treatment (20 μM). DRGs were collected after 3 days. Glyceraldehyde-3-phosphate dehydrogenase (GAPDH) antibodies were used as the loading control. (B) Western blot analysis of phosphorylated FGFR expression in ex vivo cultured DRG explants of adult Sprague-Dawley rats in response to CH02 treatment at different induction times. […] (D-F) Quantification of p-FGFR expression levels in panels A, B, and C. n = 3 independent experiments. Relative protein expression levels were quantified after normalization to FGFR2 or FGFR1. […] (H) Quantification of axon growth in DRG explants (G) using Neurite-J software (n = 5 for each condition; *control vs. CH02; #control vs. BGJ398; **p < 0.01, ***p < 0.001, ****p < 0.0001, #p < 0.05, ##p < 0.01 by two-way ANOVA with Dunnett's test; mean ± SEM). […] Images of random neurons were acquired by fluorescence microscopy. […] (J) Quantification of the longest axon length of each neuron randomly selected from (I) using Image-Pro Plus 6.0 software (n = 100 for each condition; *p < 0.05, **p < 0.01, ****p < 0.0001 by one-way ANOVA with Dunnett's; ns, not significant; mean ± SD). […]

As to `CCN1CCN(c2ccc(Nc3cc(N(C)C(=O)Nc4c(Cl)c(OC)cc(OC)c4Cl)ncn3)cc2)CC1` [BGJ398], the “effect of inhibitor on CH02-upregulated phosphorylated FGFR” value is recorded as “counteracted CH02 effects on upregulated phosphorylated FGFR levels”.

The values above are taken from paper PMC8581430, “Peptide ligands targeting FGF receptors promote recovery from dorsal root crush injury via AKT/mTOR signaling” (Theranostics, 2021).
